Test [1] concerns the target T1, MDMX (Homo sapiens, UniProt O15151).
T1 construct: gene MDM4; residues 1–110
T1 sequence (O15151 1-110): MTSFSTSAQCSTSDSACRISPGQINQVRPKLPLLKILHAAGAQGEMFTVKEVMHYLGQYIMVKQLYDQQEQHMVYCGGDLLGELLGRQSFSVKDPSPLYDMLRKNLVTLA
The test is described as follows: competitive fluorescence polarisation, % inhibition at […]. To be noted: read-out: Protein binding inhibition at 1 μM(%) ^a / MDMX.

Test [2] has as its target T2, MDM2 (Homo sapiens, UniProt Q00987).
T2 construct: residues 1–110
Described as above. To be noted: read-out: Protein binding inhibition at 1 μM(%) ^a / MDM2.

For `COC(=C1C(=O)Nc2cc(Cl)ccc21)c1ccccc1` [H3, 6-chloro-3-(methoxy(phenyl)methylene) indolin-2-one], the figures for the inhibition at 1 µM in test [1] and in test [2] were 57.9 ± 6.1% and 72.8 ± 5.6%, respectively. On to `COC(=C1C(=O)Nc2cc(F)ccc21)c1ccccc1` [H5, 6-fluoro-3-(methoxy(phenyl)methylene) indolin-2-one], for which the inhibition at 1 µM in test [2] came out at 56.8 ± 1.9%. For `COC(=C1C(=O)Nc2cc(Cl)c(F)cc21)c1ccccc1` [H6, 6-chloro-5-fluoro-3-(methoxy(phenyl)methylene) indolin-2-one], in test [2], the inhibition at 1 µM came out at 50.3 ± 2.5%. As for `O=C1Nc2cc(Cl)ccc2C1=C(c1ccccc1)N1CCCC1` [H7, 6-chloro-3-(phenyl(pyrrolidin-1-yl)methylene)indolin-2-one], in test [2], the inhibition at 1 µM was 52.6 ± 2.1%.

For the origin of these results see article PMC11721856, “Searching for novel MDM2/MDMX dual inhibitors through a drug repurposing approach” (Journal of Enzyme Inhibition and Medicinal Chemistry, 2023).
